Source: patent publication US20140243415A1, “COMPOUNDS INHIBITING GALECTIN-1 EXPRESSION, CANCER CELL PROLIFERATION, INVASION, AND TUMORIGENESIS” (ONCOETHIX SA, priority 2011, published 2014)

What was measured:
γH2AX = γH2AX expression; type: cell-based, human
SQ20B xenografts = assay: SQ20B xenograft model; type: in vivo
Method: FIG. 6. […] A—The antitumor effects of OTX-008 on A2780-1A9 xenograft were compared to that of active doses of cisplatin and paclitaxel—solid line represents days of treatment. B—Immunohistochemistry of galectin-1, Ki67 (MIB-1) and CD31 on A2780-1A9 xenograft. C—Tumor growth and secondary tumor formation of SQ20B xenografts untreated and treated with 10 mg/kg/day OTX-008 and SQ-shGAL1 xenografts. Tumor volume was determined as 3.14(width2)/length—solid line represents days of treatment. D—Immunohistochemistry of galectin-1, MIB1, VEGFR2 and CD31 on SQ20B xenografts
The immunohistochemical procedure was performed on OCT-embedded subcutaneous tumor stained with H&E, MIB1 ( 1/400, Dako, Glostrup, Denmark), CD31 ( 1/200, Dako), VEGFR2 ( 1/125, Cell Signaling, Saint Quentin Yvelines, France) or galectin-1 (1:20, Abcam, Cambridge, Mass., USA) using an automated immunohistochemical stainer according to the manufacturer's guidelines (streptavidin-peroxidase protocol; Benchmark, Ventana, Tuscon, Ariz., USA). The images were captured and analyzed with a Zeiss observer Z1 microscope. Images quantification was performed using Histolab Software (Microvision, France) subtracting the background. Magnification ×20 and ×40.
5.10^6 SQ20B or SQ20B-shGal1 cancer cells were injected s.c. into the right lateral flank of female nu/nu athymic mice. On day 5, mice were randomized; one group of SQ20B-mice was treated every other day with 10 mg/kg OTX-008 i.p. Tumor size was measured twice weekly with caliper and tumor volume was calculated as 3.14(width^2)/length. At the end of the study, mice were sacrificed, tumors were weighed and stored in OCT for molecular biology and immunohistochemical analysis. Secondary tumors were analyzed on liver, lung, intestine and skin in all mice. Mouse experiments complied with guidelines for Animal Housing and Experiment Board of the French authorities.

galectin-1 = target: T1, galectin-1 (Homo sapiens, UniProt P09382); assay: Western blot of galectin-1 in SQ20B cells; type: cell-based; conditions: 3 μM OTX-008, 48 and 72 h exposure
T1 construct: Western Blot of galectin-1 on SQ20B cells treated with 3 μM OTX-008 for 24 h, 48 h and 72 h; endogenous in cells; host or cells: SQ20B (ATCC)
Method: FIG. 3. Effects of OTX-008 on galectin-1 expression and localization. A—Western Blot of galectin-1 on SQ20B cells treated with 3 μM OTX-008 for 24 h, 48 h and 72 h. B and C—Immunofluorescence of galectin-1 on SQ20B cells treated with 3 μM OTX-008 for 24 and 48 h. B—OTX-008 treatment decreases galectin-1 immunostaining in SQ20B cells. C—Galectin-1 translocates into the nucleus after OTX-008 exposure. D—Western Blot of p-AKTser473, AKT, p-S6, p-ERK1/2, ERK and p-PKCα in SQ20B cells treated with 3 μM OTX-008 for 10 min, 1 h, 2 h, 5 h and 24 h.
FIG. 4. OTX-008-induced galectin-1 oxydation and degradation by the proteosome system A—Western Blot of galectin-1 on SQ20B cells treated 48 h with 10 μM N-acetylcysteine (NAC), 55 μM β-mercaptoethanol (βME), 1 mM Tempol and 10 μM co-enzyme Q10 (Q10) with or without 3 μM OTX-008. B—Western Blot of galectin-1 on SQ20B cells treated 48 h with 3 μM OTX-008, pretreated 2 h with proteasome inhibitor Bortezomib (10 nM) and then treated 48 h with 3 μM OTX-008 (BTZ—OTX-008) or treated 48 h with 10 nM Bortezomib+3 μM OTX-008 (BTZ+OTX-008).
Cells were lysed in buffer containing 50 mM HEPES (pH 7.6), 150 mM NaCl, 1% Triton X-100, 2 mM sodium vanadate, 100 mM NaF, and 0.4 mg/ml phenylmethylsulfonyl fluoride. Equal amounts of protein (30 μg/lane) were subjected to SDS-PAGE and transferred to nitrocellulose membranes. […]

cultured fibroblasts = assay: Antiproliferative effect in fibroblasts; type: cell-based
[1] = system: panel of human cancer cell lines; assay: MTT cell cytotoxicity assay, cell line panel; type: cell-based; conditions: Homo sapiens; remaining cell lines (other than SQ20B, OVCAR3, A2780-1A9)
Method: Cell survival was determined using the MTT assay (3-[4,5-dimethylthiazol-2-yl]-2,5-diphenyltetrazolium bromide; Sigma, Saint-Quentin Fallavier, France). The conversion of yellow water-soluble tetrazolium MTT into purple insoluble formazan is catalyzed by mitochondrial dehydrogenases and used to estimate the number of viable cells. In brief, cells were seeded in 96-well tissue culture plates at a density of 2×10^3 cells/well. After 72 h drug exposure and 48 h wash-out, cells were incubated with 0.4 mg/ml MTT for 4 hours at 37° C. After incubation, the supernatant was discarded, insoluble formazan precipitates were dissolved in 0.1 ml of DMSO and the absorbance was measured at 560 nm by use of a microplate reader (Thermo, France). […] IC50's were determined as the halves of maximal inhibitory drug concentration for each cell line.
The antiproliferative effects of OTX-008 and anginex were assessed using MTT assay in a panel of human cancer cell lines of human origins expressing various levels of Lgals-1 mRNA and galectin-1 protein expressions (Supplementary Table 1). […] No correlation between mRNA expressions of galectin-2, galectin-3, and galectin-8 as well as semaphorin-3A, semaphorin-3B, neuropilin-1, VEGFR1-3, VEGFA-D, and PDGFRa&P3 and sensitivity to OTX-008 were detected in the panel.

[2] = 10 mg/kg OTX-008 i.p. every other day

T1 sequence (P09382 whole entry): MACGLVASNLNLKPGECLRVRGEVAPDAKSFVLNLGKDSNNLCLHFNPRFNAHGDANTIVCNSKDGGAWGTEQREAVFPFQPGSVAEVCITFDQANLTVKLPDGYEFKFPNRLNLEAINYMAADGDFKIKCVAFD

CN(C)CCNC(=O)COc1c2cccc1Cc1cccc(c1OCC(=O)NCCN(C)C)Cc1cccc(c1OCC(=O)NCCN(C)C)Cc1cccc(c1OCC(=O)NCCN(C)C)C2 [OTX-008]
γH2AX expression (γH2AX): no direct effects | mice developing subcutaneous metastasis (SQ20B xenografts; 10 mg/kg OTX-008, control group >80%): 14% | toxicity of the dose (SQ20B xenografts; [2]): non-toxic dose | tumor growth (SQ20B xenografts; [2]): inhibited the growth of SQ20B xenografts | cell proliferation (Ki67) (SQ20B xenografts; SQ20B xenograft): significant decrease | galectin-1 expression in tumors (SQ20B xenografts; SQ20B xenograft): significant decrease | secondary tumor development (SQ20B xenografts; at mouse autopsies): significantly inhibited secondary tumor development | number and diameter of micro-vessels (SQ20B xenografts; vs control): significantly reduced | galectin-1 protein expression (galectin-1): decreased galectin-1 protein expression | antiproliferative effect (cultured fibroblasts): no antiproliferative effect | GI50 [1]: > 9 µM
